One experiment has as its system SARS-CoV-2-NLuc. The experiment is described as follows: microbe, parasite or virus in culture. Type of experiment: cell-based, SARS Coronavirus 2.
Experiment [1] has as its target recombinant SARS-CoV-2 Main protease (Mpro) (Severe acute respiratory syndrome coronavirus 2 (2019-nCoV) (SARS-CoV-2), UniProt P0DTD1). Put plainly: Cov Mpro Biochemical IC50 Assay. The conditions noted are these: recombinant SARS-CoV-2 Mpro 7.5 nM, fluorogenic peptide substrate 40 μM; read-out: MPro IC50.
The mark [2] stands for this setting: Severe acute respiratory syndrome coronavirus, 48 h, read-out: MPro EC50.
The mark [3] stands for this setting: Severe acute respiratory syndrome coronavirus, 48 h; read-out: MPro EC50.

Structures are written as SMILES. Read-outs that look alike come from different tables or passages of the source.

As a reminder, the EC50 is the midpoint of the concentration-response curve. One may read the IC50 as the concentration needed to halve the response being measured. Turning to `COc1cc(-c2cc3c(s2)c(=O)n(-c2cncc4ccccc24)c(=O)n3CCC#N)c(Cl)cc1Cl` [Example 832], in the experiment on SARS-CoV-2-NLuc (setting [2]), the 50% effective concentration (EC50) worked out at 7.16 nM. For the same compound, the IC50 in experiment [1] was 7.71 nM.
Taken in the same sequence, the figures for `Cc1cncc(-n2c(=O)c3sc(-c4ccccc4Cl)cc3n(CCC#N)c2=O)n1` [Example 833] were 49.7 nM and 16 nM.
Consider `Cc1c(Cl)cncc1-n1c(=O)c2sc(-c3ccccc3Cl)cc2n(CCC#N)c1=O` [Example 834], for which the concentration for a half-maximal effect (EC50) in the experiment with SARS-CoV-2-NLuc (setting [3]) is 34.2 nM. For the same compound, the IC50 in experiment [1] was 19.5 nM.
The like results for `Cc1cnnc(-n2c(=O)c3sc(-c4ccccc4Cl)cc3n(CCC#N)c2=O)c1` [Example 835] were, in that order, 28.1 nM and 9.44 nM.
The like results for `COc1cncc(-n2c(=O)c3sc(-c4ccccc4Cl)cc3n(CCC#N)c2=O)c1` [Example 836] were, in that order, 40.5 nM and 21.7 nM.
As to `COc1cnc(C#N)c(-c2cc3c(s2)c(=O)n(-c2cncc4ccccc24)c(=O)n3CCC#N)c1` [Example 837, 3-(1-(2-cyanoethyl)-3-(isoquinolin-4-yl)-2,4-dioxo-1,2,3,4-tetrahydrothieno[3,2-d]pyrimidin-6-yl)-5-methoxypicolinonitrile], the EC50 in the experiment with SARS-CoV-2-NLuc (setting [2]) is 30.4 nM. The concentration for half-maximal inhibition (IC50) in experiment [1] was 9.22 nM.
Taken in the same sequence, the figures for `COc1cccc(C#N)c1-c1cc2c(s1)c(=O)n(-c1cncc3cnn(C)c13)c(=O)n2CCC#N` [Example 838, 2-(1-(2-cyanoethyl)-3-(1-methyl-1H-pyrazolo[4,3-c]pyridin-7-yl)-2,4-dioxo-1,2,3,4-tetrahydrothieno[3,2-d]pyrimidin-6-yl)-3-methoxybenzonitrile] were 115 nM and 32.5 nM.
As to `COc1cccc(C#N)c1-c1cc2[nH]c(=O)n(-c3cncc4cnn(C)c34)c(=O)c2s1` [Example 839, 3-methoxy-2-(3-(1-methyl-1H-pyrazolo[4,3-c]pyridin-7-yl)-2,4-dioxo-1,2,3,4-tetrahydrothieno[3,2-d]pyrimidin-6-yl)benzonitrile], the EC50 with SARS-CoV-2-NLuc (setting [2]) was 463 nM. Further, the IC50 in experiment [1] worked out at 91.3 nM.
In the case of `Cc1ccc(-c2cc3c(s2)c(=O)n(-c2cncc4cnn(C)c24)c(=O)n3CCC#N)c(C#N)c1` [Example 840], the EC50 in the experiment on SARS-CoV-2-NLuc (setting [2]) turned out to be 43.3 nM. Besides, the IC50 in experiment [1] worked out at 16.8 nM.
For `Cc1ccc(-c2cc3[nH]c(=O)n(-c4cncc5cnn(C)c45)c(=O)c3s2)c(C#N)c1` [Example 841], in the experiment with SARS-CoV-2-NLuc (setting [2]), the EC50 came to 523 nM. Also, the IC50 in experiment [1] amounted to 134 nM.
Taken in the same sequence, the figures for `COc1cc(-c2cc3c(s2)c(=O)n(-c2cncc4nc(C)n(C)c24)c(=O)n3CCC#N)c(Cl)cc1F` [Example 842, 3-(6-(2-chloro-4-fluoro-5-methoxyphenyl)-3-(1,2-dimethyl-1H-imidazo[4,5-c]pyridin-7-yl)-2,4-dioxo-3,4-dihydrothieno[3,2-d]pyrimidin-1(2H)-yl)propanenitrile] were 27.5 nM and 6.66 nM.
Taken in the same sequence, the figures for `COc1cc(-c2cc3c(s2)c(=O)n(-c2cncc4ncn(C)c24)c(=O)n3CCC#N)c(Cl)cc1F` [Example 843] were 13.2 nM and 5.43 nM.
With `Cn1cnc2cncc(-n3c(=O)c4sc(-c5ccccc5C#N)cc4n(CCC#N)c3=O)c21` [Example 844], the EC50 in the experiment on SARS-CoV-2-NLuc (setting [3]) is greater than 1000 nM. In addition, the IC50 in experiment [1] is 65.6 nM.
Turning to `COc1cc(-c2cc3c(s2)c(=O)n(-c2cncc4ncn(C)c24)c(=O)n3CCC#N)c(C#N)cc1F` [Example 845], the EC50 in the experiment with SARS-CoV-2-NLuc (setting [2]) is 388 nM. For the same compound, the concentration for half-maximal inhibition (IC50) in experiment [1] came out at 10 nM.
For `Cc1c(Cl)cncc1-n1c(=O)c2sc(-c3ccccc3C#N)cc2n(CCC#N)c1=O` [Example 846], the EC50 in the experiment with SARS-CoV-2-NLuc (setting [3]) turned out to be 37.3 nM. Besides, the IC50 in experiment [1] stood at 12.5 nM.
Taken in the same sequence, the figures for `Cc1c(Cl)cncc1-n1c(=O)c2sc(-c3cc(F)c(F)cc3Cl)cc2n(CCC#N)c1=O` [Example 847] were 19.8 nM and 8.09 nM.
Consider `Cc1c(F)cncc1-n1c(=O)c2sc(-c3ccccc3C#N)cc2n(CCC#N)c1=O` [Example 848], for which the EC50 with SARS-CoV-2-NLuc (setting [3]) is 137 nM. Also, the IC50 in experiment [1] was determined as 34.5 nM.
For the compound `COc1cc(-c2cc3c(s2)c(=O)n(-c2cncc(F)c2C)c(=O)n3CCC#N)c(C#N)cc1F` [Example 849], the 50% effective concentration (EC50) in the experiment on SARS-CoV-2-NLuc (setting [2]) was found to be 30.4 nM. Also, the IC50 in experiment [1] was 12.8 nM.
On to `Cc1c(F)cncc1-n1c(=O)c2sc(-c3cc(F)c(F)cc3Cl)cc2n(CCC#N)c1=O` [Example 850], for which, in the experiment on SARS-CoV-2-NLuc (setting [3]), the concentration for a half-maximal effect (EC50) amounted to 54.2 nM. Besides, in experiment [1], the IC50 was 26.7 nM.
On to `Cn1cnc2cncc(-n3c(=O)c4sc(-c5ccc(F)cc5Cl)cc4n(CCC#N)c3=O)c21` [Example 851], for which the 50% effective concentration (EC50) with SARS-CoV-2-NLuc (setting [3]) was determined as 75.3 nM. Also, the IC50 in experiment [1] was 22.3 nM.
Taken in the same sequence, the figures for `Cn1cnc2cncc(-n3c(=O)c4sc(-c5cc(F)c(F)cc5Cl)cc4n(CCC#N)c3=O)c21` [Example 852] were 104 nM and 27.4 nM.
As to `Cc1nc2cncc(-n3c(=O)c4sc(-c5ccc(F)cc5Cl)cc4n(CCC#N)c3=O)c2n1C` [Example 853, 3-(6-(2-chloro-4-fluorophenyl)-3-(1,2-dimethyl-1H-imidazo[4,5-c]pyridin-7-yl)-2,4-dioxo-3,4-dihydrothieno[3,2-d]pyrimidin-1(2H)-yl)propanenitrile], in the experiment with SARS-CoV-2-NLuc (setting [2]), the EC50 stood at 102 nM. Also, the half-maximal inhibitory concentration (IC50) in experiment [1] was found to be 26.8 nM.
The like results for `Cc1nc2cncc(-n3c(=O)c4sc(-c5ccccc5C#N)cc4n(CCC#N)c3=O)c2n1C` [Example 854] were, in that order, greater than 1000 nM and 93.3 nM.
Consider `COc1cc(-c2cc3c(s2)c(=O)n(-c2cncc4nc(C)n(C)c24)c(=O)n3CCC#N)c(C#N)cc1F` [Example 855], for which the EC50 with SARS-CoV-2-NLuc (setting [2]) was determined as 498 nM. Moreover, in experiment [1], the IC50 stood at 19 nM.
As for `COc1cc(-c2cc3c(s2)c(=O)n(-c2cncc4nc(C(F)(F)F)n(C)c24)c(=O)n3CCC#N)c(Cl)cc1F` [Example 856, 3-(6-(2-chloro-4-fluoro-5-methoxyphenyl)-3-(1-methyl-2-(trifluoromethyl)-1H-imidazo[4,5-c]pyridin-7-yl)-2,4-dioxo-3,4-dihydrothieno[3,2-d]pyrimidin-1(2H)-yl)propanenitrile], in the experiment with SARS-CoV-2-NLuc (setting [2]), the EC50 stood at 46.1 nM. In addition, the IC50 in experiment [1] was found to be 23.2 nM.
Regarding `Cn1c(C(F)(F)F)nc2cncc(-n3c(=O)c4sc(-c5ccc(F)cc5Cl)cc4n(CCC#N)c3=O)c21` [Example 857], in the experiment on SARS-CoV-2-NLuc (setting [3]), the EC50 came out at 348 nM. Besides, in experiment [1], the IC50 amounted to 161 nM.
For the compound `Cn1c(C(F)(F)F)nc2cncc(-n3c(=O)c4sc(-c5ccccc5C#N)cc4n(CCC#N)c3=O)c21` [Example 858], the 50% effective concentration (EC50) in the experiment on SARS-CoV-2-NLuc (setting [2]) came to 741 nM. In addition, the IC50 in experiment [1] was 263 nM.
The like results for `COc1cc(-c2cc3c(s2)c(=O)n(-c2cncc4nc(C(F)(F)F)n(C)c24)c(=O)n3CCC#N)c(C#N)cc1F` [Example 859] were, in that order, 169 nM and 62.8 nM.
The like results for `Cc1nc2cncc(-n3c(=O)c4sc(-c5cc(F)c(F)cc5Cl)cc4n(CCC#N)c3=O)c2n1C` [Example 860] were, in that order, 212 nM and 39.4 nM.
The like results for `COc1cc(-c2cc3c(s2)c(=O)n(-c2cnccc2C(F)(F)F)c(=O)n3CCC#N)c(Cl)cc1F` [Example 861] were, in that order, 68.9 nM and 35.8 nM.
With `COc1cc(-c2cc3c(s2)c(=O)n(-c2cnccc2C(F)(F)F)c(=O)n3CCC#N)c(C#N)cc1F` [Example 862], the EC50 in the experiment on SARS-CoV-2-NLuc (setting [2]) amounted to 210 nM. In addition, the IC50 in experiment [1] was 95.3 nM.
Turning to `N#CCCn1c(=O)n(-c2cncc(Cl)c2)c(=O)c2sc(-c3ccccc3C#N)cc21` [Example 863], the EC50 in the experiment with SARS-CoV-2-NLuc (setting [3]) is 37.6 nM. In experiment [1], the IC50 was 13.3 nM.
For the compound `N#CCCn1c(=O)n(-c2cncc(F)c2)c(=O)c2sc(-c3ccccc3C#N)cc21` [Example 864], the EC50 with SARS-CoV-2-NLuc (setting [3]) is 150 nM. The IC50 in experiment [1] turned out to be 53.2 nM.
Turning to `COc1cc(-c2cc3c(s2)c(=O)n(-c2cncc(Cl)c2)c(=O)n3CCC#N)c(C#N)cc1F` [Example 866], in the experiment with SARS-CoV-2-NLuc (setting [2]), the 50% effective concentration (EC50) was 12.9 nM. Moreover, the IC50 in experiment [1] was 5.61 nM.
Turning to `COc1cc(-c2cc3c(=O)n(-c4cncc5ccccc45)c(=O)n(CCC#N)c3s2)c(Cl)cc1F` [Example 867], the EC50 in the experiment with SARS-CoV-2-NLuc (setting [2]) came to 13.1 nM. Moreover, the IC50 in experiment [1] amounted to 9.82 nM.
Taken in the same sequence, the figures for `COc1cc(-c2cc3c(s2)c(=O)n(-c2cncc(C#N)c2C)c(=O)n3CCC#N)c(Cl)cc1F` [Example 868] were 26.1 nM and 9.86 nM.
The like results for `COc1cc(-c2cc3c(s2)c(=O)n(-c2cncc(C(F)(F)F)c2)c(=O)n3CCC#N)c(Cl)cc1F` [Example 869] were, in that order, 73 nM and 23.9 nM.
Regarding `COc1cncc(-n2c(=O)c3sc(-c4cc(OC)c(F)cc4Cl)cc3n(CCC#N)c2=O)c1` [Example 870], in the experiment with SARS-CoV-2-NLuc (setting [2]), the 50% effective concentration (EC50) was 3.41 nM. Further, the IC50 in experiment [1] is 2.89 nM.
On to `COc1cc(-c2cc3c(s2)c(=O)n(-c2cncc(OC)c2C)c(=O)n3CCC#N)c(Cl)cc1F` [Example 871], for which the EC50 in the experiment on SARS-CoV-2-NLuc (setting [2]) amounted to 220 nM. For the same compound, in experiment [1], the IC50 is 75.3 nM.
As to `COc1cc(-c2cc3c(s2)c(=O)n(-c2cncc(OC(F)F)c2)c(=O)n3CCC#N)c(Cl)cc1F` [Example 872], in the experiment on SARS-CoV-2-NLuc (setting [2]), the half-maximal effective concentration (EC50) worked out at 37.3 nM. Moreover, in experiment [1], the IC50 came to 8.39 nM.
Taken in the same sequence, the figures for `COc1cc(-c2cc3c(s2)c(=O)n(-c2cncc(N4CCOCC4)c2)c(=O)n3CCC#N)c(Cl)cc1F` [Example 873] were greater than 1000 nM and 263 nM.
The like results for `COc1cc(-c2cc3c(s2)c(=O)n(-c2cncc(N(C)C)c2)c(=O)n3CCC#N)c(Cl)cc1F` [Example 874] were, in that order, 204 nM and 41.4 nM.
Turning to `Cc1cncc(-n2c(=O)c3sc(-c4ccccc4C#N)cc3n(CCC#N)c2=O)c1` [Example 875], in the experiment on SARS-CoV-2-NLuc (setting [3]), the 50% effective concentration (EC50) amounted to 32.4 nM. The IC50 in experiment [1] came to 9.81 nM.
Turning to `COc1cc(-c2cc3c(s2)c(=O)n(-c2cncc(C)c2)c(=O)n3CCC#N)c(C#N)cc1F` [Example 876], the EC50 with SARS-CoV-2-NLuc (setting [2]) amounted to 6.25 nM. The IC50 in experiment [1] came to 2.76 nM.
Taken in the same sequence, the figures for `Cn1nnc2cncc(-n3c(=O)c4sc(-c5ccccc5C#N)cc4n(CCC#N)c3=O)c21` [Example 877] were 216 nM and 54.1 nM.

The values above are taken from patent publication US20240116946A1 (Gilead Sciences, Inc., priority 2022, published 2024).
